According to patent US20090137572A1, “2-substituted-4-heteroaryl-pyrimidines useful for the treatment of proliferative disorders” (priority 2004, published 2009):

Legend:
[1] = molecular target: T1, Flt3 (FMS-like tyrosine kinase-3) (Homo sapiens, UniProt P36888); test: Kinase assay (radioactive phosphate incorporation), Flt3; format: biochemical; conditions: pIC50 is -log(IC50, M), read-out: Kinase Inhibition pIC50 Flt3 (converted)
T1 sequence (P36888 27-993): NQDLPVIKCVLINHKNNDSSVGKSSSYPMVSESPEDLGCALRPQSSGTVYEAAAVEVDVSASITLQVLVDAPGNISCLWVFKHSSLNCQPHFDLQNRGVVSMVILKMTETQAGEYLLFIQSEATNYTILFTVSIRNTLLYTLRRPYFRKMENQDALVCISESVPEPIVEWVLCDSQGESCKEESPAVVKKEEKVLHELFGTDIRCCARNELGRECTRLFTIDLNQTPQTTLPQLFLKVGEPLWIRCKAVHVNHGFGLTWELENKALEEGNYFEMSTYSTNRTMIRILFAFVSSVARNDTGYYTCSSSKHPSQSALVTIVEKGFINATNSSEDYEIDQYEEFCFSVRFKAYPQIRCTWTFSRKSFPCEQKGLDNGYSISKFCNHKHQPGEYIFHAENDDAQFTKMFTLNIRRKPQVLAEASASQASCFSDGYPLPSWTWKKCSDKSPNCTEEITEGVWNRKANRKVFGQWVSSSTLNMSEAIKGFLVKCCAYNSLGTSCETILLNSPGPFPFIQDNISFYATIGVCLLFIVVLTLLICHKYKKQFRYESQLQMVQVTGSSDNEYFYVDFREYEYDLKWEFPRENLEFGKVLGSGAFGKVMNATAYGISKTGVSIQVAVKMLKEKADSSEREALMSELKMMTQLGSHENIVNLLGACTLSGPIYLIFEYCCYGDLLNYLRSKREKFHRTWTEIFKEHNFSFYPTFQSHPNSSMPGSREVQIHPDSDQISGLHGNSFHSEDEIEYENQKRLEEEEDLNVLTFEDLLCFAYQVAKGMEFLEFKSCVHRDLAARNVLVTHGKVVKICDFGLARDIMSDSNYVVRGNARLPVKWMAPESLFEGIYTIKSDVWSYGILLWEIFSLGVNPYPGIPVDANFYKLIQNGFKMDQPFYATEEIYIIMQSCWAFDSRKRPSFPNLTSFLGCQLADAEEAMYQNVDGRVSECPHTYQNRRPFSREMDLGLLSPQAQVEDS
Procedure: (§1) Kinase assays. The compounds of the invention above were investigated for their ability to inhibit the enzymatic activity of various protein kinases (Table 2). This was achieved by measurement of incorporation of radioactive phosphate from ATP into appropriate polypeptide substrates. Recombinant protein kinases and kinase complexes were produced or obtained commercially. Assays were performed using 96-well plates and appropriate assay buffers (typically 25 mM β-glycerophosphate, 20 mM MOPS, 5 mM EGTA, 1 mM DTT, 1 mM […], pH 7.4), into which were added 2-4 μg of active enzyme with appropriate substrates. The reactions were initiated by addition of Mg/ATP mix (15 mM MgCl2+100 μM ATP with 30-50 kBq per well of [γ-^32P]-ATP) and mixtures incubated as required at 30° C. Reactions were stopped on ice, followed by filtration through p81 filterplates or GF/C filterplates (Whatman Polyfiltronics, Kent, UK). After washing 3 times with 75 mM aq orthophosphoric acid, plates were dried, scintillant added and incorporated radioactivity measured in a scintillation counter (TopCount, Packard Instruments, Pangbourne, Berks, UK). Compounds for kinase assay were made up as 10 mM stocks in DMSO and diluted into 10% DMSO in assay buffer.

CDK2-cycline E = CDK2-cycline E (Homo sapiens, UniProt P24941); test: Kinase assay (radioactive phosphate incorporation), CDK2-cyclin E; format: biochemical; conditions: read-out: Kinase Inhibition pIC50 CDK2-cycline E (converted)
Method in brief: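 Recombinant kinases (2-4 μg) with polypeptide substrates in pH 7.4 MOPS/β-glycerophosphate buffer. Reactions started with 15 mM MgCl2 + 100 μM ATP containing [γ-32P]-ATP and incubated at 30° C. Filter-bound incorporated radioactivity counted by scintillation; compounds diluted from DMSO stocks into 10% DMSO buffer.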

Aurora A kinase = molecular target: T2, Aurora A kinase (Homo sapiens, UniProt O14965); test: Aurora-A (human) kinase assay (Kemptide substrate); format: biochemical; conditions: pIC50 is -log(IC50, M); 15 μM ATP; read-out: Kinase Inhibition pIC50 Aurora A kinase (converted)
T2 construct: purchased
T2 sequence (O14965 1-403): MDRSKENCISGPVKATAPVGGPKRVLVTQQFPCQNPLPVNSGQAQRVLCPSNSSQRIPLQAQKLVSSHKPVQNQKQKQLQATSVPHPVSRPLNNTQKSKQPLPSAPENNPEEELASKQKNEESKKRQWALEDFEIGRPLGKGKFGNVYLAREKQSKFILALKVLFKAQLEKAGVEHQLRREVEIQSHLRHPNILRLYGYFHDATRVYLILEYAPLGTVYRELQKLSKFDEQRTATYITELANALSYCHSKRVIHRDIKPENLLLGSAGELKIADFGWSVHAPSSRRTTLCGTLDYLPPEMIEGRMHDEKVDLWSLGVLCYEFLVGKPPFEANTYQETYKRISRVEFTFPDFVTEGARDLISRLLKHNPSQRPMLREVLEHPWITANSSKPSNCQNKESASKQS
Method in brief: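 Radiometric filter-binding assay: commercial aurora-A kinase (5-10 ng) with 200 μM Kemptide in MOPS/EDTA pH 7.0, started with 10 mM Mg acetate and 15 μM ATP plus [γ-33P]-ATP. Incubated 40 min at room temperature, stopped with phosphoric acid, incorporated 33P counted by scintillation.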

CDK9/cyclin T1 = CDK9/cyclin T1 (Homo sapiens, UniProt P50750); test: CDK 9 assay (CTD peptide substrate); format: biochemical; conditions: read-out: Kinase Inhibition pIC50 CDK9-cyclin T1 (converted)
Method in brief: (§2)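 Radiometric assay: recombinant human CDK9/cyclin T1 or CDK7/cyclin H with biotinylated CTD heptapeptide-repeat substrate, 100 μM ATP with [γ-32P]ATP, 15 mM MgCl2, MOPS pH 7.2, 45 min at 30 °C. Avidin-captured substrate filtered onto P81; 32P incorporation counted by scintillation.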

CDK7/cyclin H = CDK7/cyclin H (Homo sapiens, UniProt P50613); test: CDK 7 assay (CTD peptide substrate); format: biochemical; conditions: read-out: Kinase Inhibition pIC50 CDK7-cyclin H (converted)
Method in brief: as §2

CDK1-cyclin B = CDK1-cyclin B (Homo sapiens, UniProt P06493); test: Kinase assay (radioactive phosphate incorporation), CDK1-cyclin B; format: biochemical; conditions: read-out: Kinase Inhibition pIC50 CDK1-cyclin B (converted)
Procedure: as §1

GSK3b = GSK3b (Homo sapiens, UniProt P49841); test: Kinase assay (radioactive phosphate incorporation), GSK-3b; format: biochemical; conditions: read-out: Kinase Inhibition pIC50 GSK-3b (converted)
Procedure: as §1

CDK4-cyclin D1 = CDK4-cyclin D1 (Homo sapiens, UniProt P11802); test: Kinase assay (radioactive phosphate incorporation), CDK4-cyclin D1; format: biochemical; conditions: read-out: Kinase Inhibition pIC50 CDK4-cyclin D1 (converted)
Procedure: as §1

CDK4-cyclin D1, sequence (P11802 whole entry): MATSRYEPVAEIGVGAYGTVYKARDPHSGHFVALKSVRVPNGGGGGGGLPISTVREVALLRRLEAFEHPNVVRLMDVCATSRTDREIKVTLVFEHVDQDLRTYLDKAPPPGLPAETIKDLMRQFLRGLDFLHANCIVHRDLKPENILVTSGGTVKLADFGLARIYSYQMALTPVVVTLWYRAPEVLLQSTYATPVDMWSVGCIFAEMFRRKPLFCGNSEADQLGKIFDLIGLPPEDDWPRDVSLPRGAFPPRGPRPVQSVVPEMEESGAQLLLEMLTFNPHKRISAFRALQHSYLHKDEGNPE
CDK4-cyclin D1, sequence (P24385 whole entry partner): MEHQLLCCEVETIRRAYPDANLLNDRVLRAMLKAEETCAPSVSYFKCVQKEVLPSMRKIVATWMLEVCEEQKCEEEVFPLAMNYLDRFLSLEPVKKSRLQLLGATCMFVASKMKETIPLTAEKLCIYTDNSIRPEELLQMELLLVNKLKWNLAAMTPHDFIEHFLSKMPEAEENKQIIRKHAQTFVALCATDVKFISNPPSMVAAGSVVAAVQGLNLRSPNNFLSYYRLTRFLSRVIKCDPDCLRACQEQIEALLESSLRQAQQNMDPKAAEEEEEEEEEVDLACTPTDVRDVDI
GSK3b, sequence (P49841 whole entry, species assumed): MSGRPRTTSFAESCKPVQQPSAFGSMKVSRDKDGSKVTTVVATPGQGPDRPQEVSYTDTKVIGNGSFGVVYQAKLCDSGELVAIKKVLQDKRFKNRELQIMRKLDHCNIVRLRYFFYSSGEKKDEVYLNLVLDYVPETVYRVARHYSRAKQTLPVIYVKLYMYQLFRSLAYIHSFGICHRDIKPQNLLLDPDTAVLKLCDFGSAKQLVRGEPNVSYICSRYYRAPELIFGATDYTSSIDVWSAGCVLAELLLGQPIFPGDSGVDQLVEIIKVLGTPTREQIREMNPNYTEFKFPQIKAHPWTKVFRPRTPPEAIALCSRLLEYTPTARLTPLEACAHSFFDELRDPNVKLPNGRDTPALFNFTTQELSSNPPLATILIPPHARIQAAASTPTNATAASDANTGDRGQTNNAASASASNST
CDK9/cyclin T1, sequence (P50750 whole entry): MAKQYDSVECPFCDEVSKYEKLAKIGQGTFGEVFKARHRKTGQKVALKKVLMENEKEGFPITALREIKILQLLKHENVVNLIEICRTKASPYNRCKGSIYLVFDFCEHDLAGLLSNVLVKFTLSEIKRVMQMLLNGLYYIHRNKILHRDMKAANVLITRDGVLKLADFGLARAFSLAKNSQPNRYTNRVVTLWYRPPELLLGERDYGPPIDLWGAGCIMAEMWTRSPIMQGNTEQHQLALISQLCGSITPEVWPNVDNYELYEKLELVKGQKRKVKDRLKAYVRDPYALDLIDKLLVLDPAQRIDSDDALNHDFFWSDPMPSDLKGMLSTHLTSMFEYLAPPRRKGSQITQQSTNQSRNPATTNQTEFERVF
CDK9/cyclin T1, sequence (O60563 whole entry partner): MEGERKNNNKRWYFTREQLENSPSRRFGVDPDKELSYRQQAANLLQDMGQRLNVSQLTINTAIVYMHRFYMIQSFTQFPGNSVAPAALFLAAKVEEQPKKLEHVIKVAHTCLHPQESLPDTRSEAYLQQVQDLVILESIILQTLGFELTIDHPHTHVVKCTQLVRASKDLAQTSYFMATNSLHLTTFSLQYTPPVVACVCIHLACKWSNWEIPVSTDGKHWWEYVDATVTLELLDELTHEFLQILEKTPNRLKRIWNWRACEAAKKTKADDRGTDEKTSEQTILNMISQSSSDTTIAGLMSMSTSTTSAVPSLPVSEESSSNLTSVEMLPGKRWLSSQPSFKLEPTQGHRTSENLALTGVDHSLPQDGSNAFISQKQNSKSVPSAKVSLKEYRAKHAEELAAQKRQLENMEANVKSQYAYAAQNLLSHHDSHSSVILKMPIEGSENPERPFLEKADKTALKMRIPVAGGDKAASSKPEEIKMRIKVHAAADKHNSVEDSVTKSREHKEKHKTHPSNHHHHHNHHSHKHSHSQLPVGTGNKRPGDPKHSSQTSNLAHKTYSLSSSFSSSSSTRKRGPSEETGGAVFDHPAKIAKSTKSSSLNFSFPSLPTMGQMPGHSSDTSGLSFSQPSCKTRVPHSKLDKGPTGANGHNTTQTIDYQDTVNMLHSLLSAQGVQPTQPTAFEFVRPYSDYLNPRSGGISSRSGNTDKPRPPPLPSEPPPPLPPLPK
CDK7/cyclin H, sequence (P50613 whole entry): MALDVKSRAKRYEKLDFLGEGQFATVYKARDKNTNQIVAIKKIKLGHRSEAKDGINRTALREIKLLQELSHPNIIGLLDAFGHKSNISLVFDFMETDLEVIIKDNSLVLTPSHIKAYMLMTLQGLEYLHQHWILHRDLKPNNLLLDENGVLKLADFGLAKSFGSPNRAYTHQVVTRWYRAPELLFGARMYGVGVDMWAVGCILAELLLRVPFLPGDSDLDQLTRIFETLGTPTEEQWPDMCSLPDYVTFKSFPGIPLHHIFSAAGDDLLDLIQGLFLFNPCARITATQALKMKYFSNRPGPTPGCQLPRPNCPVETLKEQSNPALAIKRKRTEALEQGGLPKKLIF
CDK7/cyclin H, sequence (P51946 whole entry partner): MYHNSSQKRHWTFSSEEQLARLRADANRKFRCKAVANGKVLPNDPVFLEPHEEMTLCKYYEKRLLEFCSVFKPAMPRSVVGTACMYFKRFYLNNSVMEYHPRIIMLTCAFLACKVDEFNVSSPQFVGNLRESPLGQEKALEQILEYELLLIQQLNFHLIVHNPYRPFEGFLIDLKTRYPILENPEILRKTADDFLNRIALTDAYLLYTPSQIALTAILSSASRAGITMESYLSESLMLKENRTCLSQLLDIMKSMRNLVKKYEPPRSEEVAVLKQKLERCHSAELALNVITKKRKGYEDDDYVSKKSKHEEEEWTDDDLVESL
CDK1-cyclin B, sequence (P06493 whole entry): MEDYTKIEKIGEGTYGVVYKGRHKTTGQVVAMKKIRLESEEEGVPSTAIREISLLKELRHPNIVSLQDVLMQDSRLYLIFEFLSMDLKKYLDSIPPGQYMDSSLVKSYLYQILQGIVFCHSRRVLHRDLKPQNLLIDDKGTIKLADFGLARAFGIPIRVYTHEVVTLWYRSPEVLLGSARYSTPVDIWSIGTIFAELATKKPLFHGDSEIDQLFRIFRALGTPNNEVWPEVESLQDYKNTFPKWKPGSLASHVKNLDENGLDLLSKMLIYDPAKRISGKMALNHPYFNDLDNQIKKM
CDK1-cyclin B, sequence (P14635 whole entry partner): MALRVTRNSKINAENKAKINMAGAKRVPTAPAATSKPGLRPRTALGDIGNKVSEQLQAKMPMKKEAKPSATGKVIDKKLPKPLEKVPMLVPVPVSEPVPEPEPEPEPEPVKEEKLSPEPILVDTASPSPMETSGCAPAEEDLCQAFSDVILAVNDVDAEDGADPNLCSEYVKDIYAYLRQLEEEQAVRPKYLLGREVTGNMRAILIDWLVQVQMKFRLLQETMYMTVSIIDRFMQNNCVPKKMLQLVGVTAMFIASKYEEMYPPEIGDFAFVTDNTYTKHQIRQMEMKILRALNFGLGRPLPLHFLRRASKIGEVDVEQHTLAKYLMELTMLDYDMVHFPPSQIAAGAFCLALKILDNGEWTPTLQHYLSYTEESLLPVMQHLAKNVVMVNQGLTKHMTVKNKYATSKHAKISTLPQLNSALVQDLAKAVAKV

IC50 [1] [µM] | IC50 (CDK2-cycline E) [µM] | melting point [°C] | IC50 (Aurora A kinase) [µM] | IC50 (CDK9/cyclin T1) [µM] | IC50 (CDK7/cyclin H) [µM] | IC50 (CDK1-cyclin B) [µM] | IC50 (GSK3b) [µM] | IC50 (CDK4-cyclin D1) [µM] | SMILES
0.02 | 2.51 | 184 to 186 | 0.0631 | – | – | – | – | – | COc1cc(Nc2nccc(-c3sc(NCCc4ccccc4)nc3C)n2)cc(OC)c1OC [Compound 165, [4-(4-Methyl-2-phenethylamino-thiazol-5-yl)-pyrimidin-2-yl]-(3,4,5-trimethoxy-phenyl)-amine]
0.126 | 1.26 | 212 to 213 | 0.0631 | 0.631 | 2.51 | – | – | – | CC(=O)N1CCN(c2ccc(Nc3nccc(-c4sc(NCCc5ccccc5)nc4C)n3)cc2)CC1 [Compound 163, 1-(4-{4-[4-(4-Methyl-2-phenethylamino-thiazol-5-yl)-pyrimidin-2-ylamino]-phenyl}-piperazin-1-yl)-ethanone]
0.00794 | – | – | 0.00251 | 0.0316 | – | 2 | – | – | CCNc1nc(C)c(-c2ccnc(Nc3cc(OC)c(OC)c(OC)c3)n2)s1 [Compound 24, [4-(2-Ethylamino-4-methyl-thiazol-5-yl)-pyrimidin-2-yl]-(3,4,5-trimethoxy-phenyl)-amine]
0.316 | – | – | 0.0316 | – | 1 | – | 1.26 | – | CNc1nc(C)c(-c2ccnc(Nc3ccc(S(N)(=O)=O)cc3)n2)s1 [Compound 34, 4-[4-(4-Methyl-2-methylamino-thiazol-5-yl)-pyrimidin-2-ylamino]-benzenesulfonamide]
0.0251 | 0.398 | 205 to 206 | 0.0316 | 2 | 3.98 | – | – | – | CC(=O)N1CCN(c2ccc(Nc3nccc(-c4sc(N(C)c5cccnc5)nc4C)n3)cc2)CC1 [Compound 164, 1-[4-(4-{4-[4-Methyl-2-(methyl-pyridin-3-yl-amino)-thiazol-5-yl]pyrimidin-2-ylamino}-phenyl)-piperazin-1-yl]-ethanone]
– | – | – | 0.0631 | 10 | 15.8 | 79.4 | – | 10 | CC(=O)N1CCN(c2ccc(Nc3nccc(-c4sc(N)nc4C)n3)cc2)CC1 [Compound 57, 1-(4-{4-[4-(2-Amino-4-methyl-thiazol-5-yl)-pyrimidin-2-ylamino]-phenyl}-piperazin-1-yl)-ethanone]
0.251 | 0.398 | – | 0.794 | – | – | – | 3.98 | – | Cc1nc(C)c(-c2ccnc(Nc3cccc(CNC(=O)c4ccccn4)c3)n2)s1 [Compound 91, Pyridine-2-carboxylic acid 3-[4-(2,4-dimethyl-thiazol-5-yl)-pyrimidin-2-ylamino]-benzylamide]
0.0398 | 0.0251 | – | – | 0.0158 | 0.0501 | – | 0.794 | – | COCCNc1nc(C)c(-c2ccnc(Nc3cccc(S(N)(=O)=O)c3)n2)s1 [Compound 83, 3-{4-[2-(2-Methoxy-ethylamino)-4-methyl-thiazol-5-yl]-pyrimidin-2-ylamino}-benzenesulfonamide]
– | 6.31 | – | – | 1.58 | 6.31 | – | – | 3.16 | CCNc1nc(C)c(-c2ccnc(NCc3cccnc3)n2)s1 [Compound 79, [4-(2-Ethylamino-4-methyl-thiazol-5-yl)-pyrimidin-2-yl]-pyridin-3-ylmethyl-amine]
– | – | – | 0.0126 | 0.0398 | 1.26 | – | 3.98 | – | CCNc1nc(C)c(-c2ccnc(Nc3ccc(C)c(S(=O)(=O)N4CCOCC4)c3)n2)s1 [Compound 36, [4-(2-Ethylamino-4-methyl-thiazol-5-yl)-pyrimidin-2-yl]-[4-methyl-3-(morpholine-4-sulfonyl)-phenyl]-amine]
1 | 0.316 | – | 0.0501 | 0.01 | 0.794 | – | – | 0.398 | CCNc1nc(C)c(-c2ccnc(Nc3cccc(S(=O)(=O)NCC)c3)n2)s1 [Compound 29, N-Ethyl-3-[4-(2-ethylamino-4-methyl-thiazol-5-yl)-pyrimidin-2-ylamino]-benzenesulfonamide]
– | – | – | 0.398 | 0.251 | – | – | 2.51 | – | CCNc1nc(C)c(-c2ccnc(Nc3cccc(S(=O)(=O)NCc4ccccc4)c3)n2)s1 [Compound 80, N-Benzyl-3-[4-(2-ethylamino-4-methyl-thiazol-5-yl)-pyrimidin-2-ylamino]-benzenesulfonamide]
– | 0.631 | – | 0.0251 | 0.158 | 1.58 | – | 2.51 | – | CCNc1nc(C)c(-c2ccnc(Nc3cccc(S(=O)(=O)NC(C)(C)CO)c3)n2)s1 [Compound 84, 3-[4-(2-Ethylamino-4-methyl-thiazol-5-yl)-pyrimidin-2-ylamino]-N-(2-hydroxy-1,1-dimethyl-ethyl)-benzenesulfonamide]
0.316 | – | 240 to 242 | 0.251 | – | – | – | – | – | Cc1nc(-c2cccnc2)sc1-c1ccnc(Nc2ccc(N3CCOCC3)cc2)n1 [Compound 100, [4-(4-Methyl-2-pyridin-3-yl-thiazol-5-yl)-pyrimidin-2-yl]-(4-morpholin-4-yl-phenyl)-amine]
0.00501 | 0.158 | 269 to 271 | 0.1 | – | – | – | – | – | COc1cc(Nc2nccc(-c3sc(N)nc3C)n2)cc(OC)c1 [Compound 161, [4-(2-Amino-4-methyl-thiazol-5-yl)-pyrimidin-2-yl]-(3,5-dimethoxy-phenyl)-amine]
